Patent US7521474B2, “Biologically active lasonolide compounds” (priority 2003, dated 2009)
Values after ≈ are worked out from the molar mass of the structure shown. Read-outs that look alike come from different tables or passages of the source.

Experiments:
Type in all cases: cell-based
[1] = system: NCI/ADR-RES (formerly MCF-7/ADR) human breast cell line; assay: Antiproliferative MTT assay, NCI/ADR-RES; conditions: 72-h exposure
Procedure: (§1) The lasonolide compounds were analyzed as to their effects on proliferation of A549 human lung adenocarcinoma, PANC-1 human pancreatic cancer and NCI-ADR-RES tumor cell lines. A549 human lung adenocarcinoma, PANC-1 pancreatic cancer cells and the NCI/ADR-RES (formerly MCF-7/ADR) human breast cell lines were obtained from the American Type Culture Collection (Rockville, Md.).
(§2) All cell lines are maintained in Roswell Park Memorial Institute (RPMI) medium 1640 supplemented with 100 U/mL penicillin 100 μg/ml streptomycin, 60 μg/ml L-glutamine, 18 mM HEPES, 0.05 mg/mL gentamycin and 10% fetal bovine serum (for the PANC-1 cell line the media is also supplemented with 100 μg/ml sodium pyruvate and 2.5 mg/ml glucose). Cell lines are cultured in plastic tissue culture flasks and kept in an incubator at 37° C. in humidified air containing 5% CO2.
(§3) To assess the antiproliferative effects of agents against the various cell lines, 200 μl cultures (96-well tissue culture plates, Nunc, Denmark) are first established at 3×10^4 cells/ml for adherent lines in tissue culture medium and incubated for 24 hr at 37° C. in 10% CO2 in air in order to allow cells to attach. A volume of 100 μl of medium is removed from each test well and 100 μl of medium containing serial, two-fold dilutions of the test agent is added to each well containing tumor cells. Medium without drug is also added to wells containing tumor cells which serve as no drug controls.
(§4) Positive drug controls are included to monitor drug sensitivity of each of the cell lines. These include varying dilutions of 5-fluorouracil, and doxorubicin. After 72-h exposure, tumor cells are enumerated using 3-[4,5-Dimethylthiazol-2-yl]-2,5-diphenyltetrazolium bromide (MTT) (M. C. Alley, et al., Cancer Res. 48:589, 1988) as follows:
(§5) A volume of 75 μl of warm growth media containing 5 mg/ml MTT is added to each well, cultures returned to the incubator, and left undisturbed for 3 hours. To spectrophotometrically quantitate formation of reduced formazan, plates are centrifuged (900×g, 5 minutes), culture fluids removed by aspiration, and 200 μl of acidified isopropanol (2 ml concentrated HCl/liter isopropanol) added per well. The absorbance of the resulting solutions is measured at 570 nm with a plate reader (Spectra II (Tecan Laboratories). The absorbance of tests wells is divided by the absorbance of drug-free wells, and the concentration of agent that results in 50% of the absorbance of untreated cultures (IC50) is determined by linear regression of logit-transformed data (D. J. Finney, Statistical Method in Biological Assay, third ed., pp.316-348, Charles Griffin Co., London, 1978). A linear relationship between tumor cell number and formazan production has been routinely observed over the range of cell densities observed in these experiments. The two standard drug controls (indicated above) are included in each assay to monitor the drug sensitivity of each of the cell lines and IC50 values are determined for each drug-cell combination.

[2] = system: Candida albicans (ATCC strain 44506); assay: Broth dilution assay (MIC); conditions: 37° C.; for Minimum inhibitory concentration (MIC): 24 hours; for MIC: Candida albicans, ATCC44506, 24 h
Procedure: (§6) The antifungal activity of lasonolides C and F against Candida albicans (American Type Culture Collection strain 44506) was determined through the use of both agar diffusion and broth dilution assays.
Broth dilution assays were performed as standard 96-well microtiter assays in a total volume of 50 μl with a seeding density of 10^3 cells/ml. The concentration range for test compound ranged from 50 to 3 μg/ml as two-fold dilutions. […] The Minimum inhibitory concentration (MIC) of Lasonolide F (IV) against Candida albicans in SDB broth is 50 μg/ml while in RPMI broth it is greater than 50 μg/ml.

[3] = system: PANC-1 human pancreatic cancer; assay: Antiproliferative MTT assay, PANC-1
Procedure: as §1, §2, §3, §4, §5

[4] = system: A549 human lung adenocarcinoma; assay: Antiproliferative MTT assay, A549
Procedure: as §1, §2, §3, §4, §5

[5] = system: Candida albicans (ATCC strain 44506); assay: Agar (disk) diffusion assay; conditions: 37° C., 24 hours
Procedure: as §6
Agar diffusion assays were performed using Sabouraud Dextrose agar plates seeded with the test microbe at 10^5/ml. Disks (6.35 mm, Schliecher and Schuell) were impregnated with 25 μg of test compound, allowed to dry and then placed on the agar surface. After incubation at 37° C. for 24 hours the zones of growth inhibition were determined. A control disk containing 100IU nystatin was run on the same plate as the test compound: the zone of inhibition was 28 mm.

[6] = 72-h exposure, value in parentheses
[7] = Homo sapiens, NCI/ADR-RES, value in parentheses
[8] = Homo sapiens, PANC-1, 72-h exposure
[9] = Homo sapiens, PANC-1, 72-h exposure, value in parentheses
[10] = Homo sapiens, A549, 72-h exposure
[11] = Homo sapiens, A549, 72-h exposure, value in parentheses

**Q.** For Lasonolide C [Lasonolide C (I)], which “NCI ADR-RES IC50” value [1] is on record?
**A.** 0.8 µg/mL

**Q.** And the IC50 ([1]; value in parentheses)?
**A.** 1120 nM

**Q.** And the “Minimum inhibitory concentration (MIC)” value ([2]; RPMI broth)?
**A.** 12.5 µg/mL

**Q.** And the “Minimum inhibitory concentration (MIC)” value ([2]; SDB broth)?
**A.** 5 µg/mL

**Q.** And the “PANC-1 IC50” value ([3]; 72-h exposure)?
**A.** 0.27 µg/mL

**Q.** What about the IC50 [3, 6] of the same molecule?
**A.** 380 nM

**Q.** And the “A549 IC50” value ([4]; 72-h exposure)?
**A.** 0.095 µg/mL

**Q.** What about the IC50 [4, 6] of the same molecule?
**A.** 130 nM

**Q.** What about the growth inhibitory zone ([5]; tested at 25 μg/ml (disk 6.35 mm impregnated with 25 μg)) of the same molecule?
**A.** 15 mm

**Q.** Which results are given for CCOC(=O)C(O)C/C=C\C[C@@H]1O[C@@H]2/C=C/C/C=C/C(C)=C\[C@H]3O[C@@H](C/C=C/C=C/C(=O)O[C@H](C2)[C@@]1(C)CO)C[C@H](O)[C@H]3C (some centres unmarked) [Lasonolide E (III), Lasonolide E]?
**A.** IC50 ([1]; Homo sapiens, NCI/ADR-RES): > 5 µg/mL; IC50 [1, 7]: > 8000 nM; IC50 [3, 8]: 0.35 µg/mL; IC50 [3, 9]: 570 nM; IC50 [4, 10]: 0.19 µg/mL; IC50 [4, 11]: 310 nM

**Q.** Which zone of inhibition ([5]; control disk containing 100IU, same plate) does the source give for C[C@@H]1[C@H](O)[C@@H](C)/C=C/C=C/CC/C=C/C=C/C=C/C=C/C(O[C@H]2O[C@H](C)[C@@H](O)[C@H](N)[C@@H]2O)CC2O[C@](O)(CC(O)C(O)CCC(O)CC(O)CC(O)CC(=O)O[C@H]1C)CC(O)C2C(=O)O (some centres unmarked) [nystatin, reference compound] here?
**A.** 28 mm

**Q.** How did the MIC ([2]; RPMI broth, read-out: Minimum inhibitory concentration (MIC)) turn out when CC1=C/[C@H]2O[C@@H](C/C=C/C=C/C(=O)O[C@@H]3C[C@@H](/C=C/C\C=C\1)O[C@@H](C/C=C\CC(O)C(=O)O)[C@]3(C)CO)C[C@H](O)[C@H]2C (some centres unmarked) [Lasonolide F (IV), Lasonolide F] was run?
**A.** > 50 µg/mL

**Q.** And the MIC ([2]; SDB broth, read-out: Minimum inhibitory concentration (MIC))?
**A.** 50 µg/mL (≈ 85.2 µM)

**Q.** What about the zone of inhibition at 25 µg/mL ([5]; Candida albicans, ATCC44506, tested at 25 μg/ml (disk 6.35 mm impregnated with 25 μg), read-out: growth inhibitory zone) of the same molecule?
**A.** 10 mm

**Q.** Nc1nc(=O)[nH]cc1F [5-fluorocytosine, reference compound] was tested. Which MIC ([2]; antifungal control, broth not stated, read-out: MIC) did it give?
**A.** 0.62 µg/mL (≈ 4.8 µM)

**Q.** CC1=C/[C@H]2O[C@@H](C/C=C/C=C/C(=O)O[C@@H]3C[C@@H](/C=C/C\C=C\1)O[C@@H](C/C=C\CCO)[C@]3(C)CO)C[C@H](O)[C@H]2C [Lasonolide D (II), Lasonolide D] was tested. Which IC50 ([1]; Homo sapiens, NCI/ADR-RES) did it give?
**A.** > 5 µg/mL

**Q.** What about the IC50 [1, 7] of the same molecule?
**A.** > 9000 nM

**Q.** What about the IC50 [3, 8] of the same molecule?
**A.** 2.6 µg/mL

**Q.** What about the IC50 [3, 9] of the same molecule?
**A.** 4900 nM

**Q.** What about the IC50 [4, 10] of the same molecule?
**A.** 2.4 µg/mL

**Q.** What about the IC50 [4, 11] of the same molecule?
**A.** 4500 nM
